Measured values reported in patent US10167262B2, “Herbicidal substituted 3-arylpyrazoles” (FMC CORPORATION, priority 2014, dated 2019).

Assays:
Assay in all cases: Test C postemergence greenhouse test, plant response rating 0-100
Format in all cases: in vivo
[1] = test system: winter barley (Hordeum vulgare); details: for Plant response rating, Barley: scale 0 to 100
Summary of the method: (§1)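 First, plants were raised in a sphagnum peat, vermiculite and nutrient medium to 1–4 leaves. Next, formulated test compounds were applied over the foliage. Finally, after 13–15 greenhouse days, injury was compared with controls and scored 0–100.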

[2] = test system: deadnettle (henbit deadnettle, Lamium amplexicaule); details: for Plant response rating, Deadnettle: scale 0 to 100
Summary of the method: as §1

[3] = test system: surinam grass (Brachiaria decumbens); details: for Plant response rating, Surinam Grass: scale 0 to 100
Summary of the method: as §1

[4] = test system: woolly cupgrass (Eriochloa villosa); details: for Plant response rating, Cupgrass, Woolly: scale 0 to 100
Summary of the method: as §1

[5] = test system: canarygrass (Phalaris minor); details: for Plant response rating, Canarygrass: scale 0 to 100
Summary of the method: as §1

[6] = test system: windgrass (Apera spica-venti); details: for Plant response rating, Windgrass: scale 0 to 100
Summary of the method: as §1

[7] = test system: bermudagrass (Cynodon dactylon); details: for Plant response rating, Bermudagrass: scale 0 to 100
Summary of the method: as §1

[8] = test system: cocklebur (common cocklebur, Xanthium strumarium); details: for Plant response rating, Cocklebur: scale 0 to 100
Summary of the method: as §1

[9] = test system: downy bromegrass (Bromus tectorum); details: for Plant response rating, Bromegrass, Downy: scale 0 to 100
Summary of the method: as §1

[10] = test system: green foxtail (Setaria viridis); details: for Plant response rating, Foxtail, Green: scale 0 to 100
Summary of the method: as §1

| SMILES | Plant response rating (0 to 100), Barley ([1]; 62 g ai/ha) | Plant response rating (0 to 100), Barley ([1]; 125 g ai/ha) | Plant response rating, Barley ([1]; 250 g ai/ha) | Plant response rating (0 to 100), Deadnettle ([2]; 62 g ai/ha) | Plant response rating (0 to 100), Deadnettle ([2]; 125 g ai/ha) | Plant response rating, Deadnettle ([2]; 250 g ai/ha) | Plant response rating (0 to 100), Surinam Grass ([3]; 62 g ai/ha) | Plant response rating (0 to 100), Surinam Grass ([3]; 125 g ai/ha) | Plant response rating, Surinam Grass ([3]; 250 g ai/ha) | Plant response rating (0 to 100), Cupgrass, Woolly ([4]; 62 g ai/ha) | Plant response rating (0 to 100), Cupgrass, Woolly ([4]; 125 g ai/ha) | Plant response rating, Cupgrass, Woolly ([4]; 250 g ai/ha) | Plant response rating (0 to 100), Canarygrass ([5]; 62 g ai/ha) | Plant response rating (0 to 100), Canarygrass ([5]; 125 g ai/ha) | Plant response rating, Canarygrass ([5]; 250 g ai/ha) | Plant response rating (0 to 100), Windgrass ([6]; 62 g ai/ha) | Plant response rating (0 to 100), Windgrass ([6]; 125 g ai/ha) | Plant response rating, Windgrass ([6]; 250 g ai/ha) | Plant response rating (0 to 100), Bermudagrass ([7]; 62 g ai/ha) | Plant response rating (0 to 100), Bermudagrass ([7]; 125 g ai/ha) | further results |
| --- | --- | --- | --- | --- | --- | --- | --- | --- | --- | --- | --- | --- | --- | --- | --- | --- | --- | --- | --- | --- | --- |
| ON=C(c1ccccc1)c1c[nH]nc1-c1cc(Cl)cc(Cl)c1 [Compound 50] | 0 | 0 | 0 | 0 | 0 | 40 | 0 | 0 | 0 | 0 | 0 | 0 | 0 | 0 | 0 | 0 | 0 | 0 | 0 | 0 | Plant response rating (0 to 100), Barley ([1]; 31 g ai/ha): 0; Plant response rating (0 to 100), Deadnettle ([2]; 31 g ai/ha): 0; Plant response rating (0 to 100), Cupgrass, Woolly ([4]; 31 g ai/ha): 0; Plant response rating (0 to 100), Canarygrass ([5]; 31 g ai/ha): 0; Plant response rating (0 to 100), Bermudagrass ([7]; 31 g ai/ha): 0; Plant response rating, Bermudagrass ([7]; 250 g ai/ha): 0; Plant response rating (0 to 100), Cocklebur ([8]; 31 g ai/ha): 5; Plant response rating (0 to 100), Cocklebur ([8]; 62 g ai/ha): 15; Plant response rating (0 to 100), Cocklebur ([8]; 125 g ai/ha): 55; Plant response rating, Cocklebur ([8]; 250 g ai/ha): 90; Plant response rating (0 to 100), Bromegrass, Downy ([9]; 31 g ai/ha): 0; Plant response rating (0 to 100), Bromegrass, Downy ([9]; 62 g ai/ha): 0; Plant response rating (0 to 100), Bromegrass, Downy ([9]; 125 g ai/ha): 0; Plant response rating, Bromegrass, Downy ([9]; 250 g ai/ha): 0; Plant response rating (0 to 100), Foxtail, Green ([10]; 31 g ai/ha): 0; Plant response rating (0 to 100), Foxtail, Green ([10]; 62 g ai/ha): 0; Plant response rating (0 to 100), Foxtail, Green ([10]; 125 g ai/ha): 0; Plant response rating, Foxtail, Green ([10]; 250 g ai/ha): 0 |
| Cn1cc(C(=O)c2ccccc2)c(-c2cc(Br)cc(Br)c2)n1 [Compound 53] | 0 | 0 | 0 | 0 | 0 | 0 | 0 | 0 | 0 | 5 | 5 | 5 | 0 | 0 | 0 | 0 | 0 | 0 | 5 | 5 | Plant response rating, Barley ([1]; 500 g ai/ha): 0; Plant response rating, Deadnettle ([2]; 500 g ai/ha): 0; Plant response rating, Surinam Grass ([3]; 500 g ai/ha): 0; Plant response rating, Cupgrass, Woolly ([4]; 500 g ai/ha): 5; Plant response rating, Canarygrass ([5]; 500 g ai/ha): 0; Plant response rating, Windgrass ([6]; 500 g ai/ha): 0; Plant response rating, Bermudagrass ([7]; 250 g ai/ha): 5; Plant response rating, Bermudagrass ([7]; 500 g ai/ha): 5; Plant response rating (0 to 100), Cocklebur ([8]; 62 g ai/ha): 5; Plant response rating (0 to 100), Cocklebur ([8]; 125 g ai/ha): 10; Plant response rating, Cocklebur ([8]; 250 g ai/ha): 10; Plant response rating, Cocklebur ([8]; 500 g ai/ha): 15; Plant response rating (0 to 100), Bromegrass, Downy ([9]; 62 g ai/ha): 0; Plant response rating (0 to 100), Bromegrass, Downy ([9]; 125 g ai/ha): 0; Plant response rating, Bromegrass, Downy ([9]; 250 g ai/ha): 0; Plant response rating, Bromegrass, Downy ([9]; 500 g ai/ha): 0; Plant response rating (0 to 100), Foxtail, Green ([10]; 62 g ai/ha): 0; Plant response rating (0 to 100), Foxtail, Green ([10]; 125 g ai/ha): 0; Plant response rating, Foxtail, Green ([10]; 250 g ai/ha): 0; Plant response rating, Foxtail, Green ([10]; 500 g ai/ha): 0 |
| Fc1ccccc1NN=C(c1ccccc1)c1c[nH]nc1-c1cc(Cl)cc(Cl)c1 [Compound 57] | 0 | 0 | 0 | 0 | 0 | 0 | 0 | 0 | 0 | 0 | 5 | 5 | 0 | 0 | 0 | 0 | 0 | 0 | 0 | 0 | Plant response rating (0 to 100), Barley ([1]; 31 g ai/ha): 0; Plant response rating (0 to 100), Deadnettle ([2]; 31 g ai/ha): 0; Plant response rating (0 to 100), Cupgrass, Woolly ([4]; 31 g ai/ha): 0; Plant response rating (0 to 100), Canarygrass ([5]; 31 g ai/ha): 0; Plant response rating (0 to 100), Bermudagrass ([7]; 31 g ai/ha): 0; Plant response rating, Bermudagrass ([7]; 250 g ai/ha): 5; Plant response rating (0 to 100), Cocklebur ([8]; 31 g ai/ha): 10; Plant response rating (0 to 100), Cocklebur ([8]; 62 g ai/ha): 70; Plant response rating (0 to 100), Cocklebur ([8]; 125 g ai/ha): 70; Plant response rating, Cocklebur ([8]; 250 g ai/ha): 70; Plant response rating (0 to 100), Bromegrass, Downy ([9]; 31 g ai/ha): 0; Plant response rating (0 to 100), Bromegrass, Downy ([9]; 62 g ai/ha): 0; Plant response rating (0 to 100), Bromegrass, Downy ([9]; 125 g ai/ha): 0; Plant response rating, Bromegrass, Downy ([9]; 250 g ai/ha): 0; Plant response rating (0 to 100), Foxtail, Green ([10]; 31 g ai/ha): 0; Plant response rating (0 to 100), Foxtail, Green ([10]; 62 g ai/ha): 0; Plant response rating (0 to 100), Foxtail, Green ([10]; 125 g ai/ha): 0; Plant response rating, Foxtail, Green ([10]; 250 g ai/ha): 0 |
| CCCn1cc(C(=O)c2ccccc2)c(-c2cc(Cl)cc(Cl)c2)n1 [Compound 61, [3-(3,5-dichlorophenyl)-1-propyl-1H-pyrazol-4-yl]phenylmethanone] | 0 | 0 | 0 | 0 | 0 | 0 | 0 | 0 | 0 | 10 | 10 | 15 | 0 | 0 | 0 | 0 | 0 | 0 | 5 | 5 | Plant response rating (0 to 100), Barley ([1]; 31 g ai/ha): 0; Plant response rating (0 to 100), Deadnettle ([2]; 31 g ai/ha): 0; Plant response rating (0 to 100), Cupgrass, Woolly ([4]; 31 g ai/ha): 5; Plant response rating (0 to 100), Canarygrass ([5]; 31 g ai/ha): 0; Plant response rating (0 to 100), Bermudagrass ([7]; 31 g ai/ha): 0; Plant response rating, Bermudagrass ([7]; 250 g ai/ha): 5; Plant response rating (0 to 100), Cocklebur ([8]; 31 g ai/ha): 10; Plant response rating (0 to 100), Cocklebur ([8]; 62 g ai/ha): 10; Plant response rating (0 to 100), Cocklebur ([8]; 125 g ai/ha): 20; Plant response rating, Cocklebur ([8]; 250 g ai/ha): 35; Plant response rating (0 to 100), Bromegrass, Downy ([9]; 31 g ai/ha): 0; Plant response rating (0 to 100), Bromegrass, Downy ([9]; 62 g ai/ha): 0; Plant response rating (0 to 100), Bromegrass, Downy ([9]; 125 g ai/ha): 0; Plant response rating, Bromegrass, Downy ([9]; 250 g ai/ha): 0; Plant response rating (0 to 100), Foxtail, Green ([10]; 31 g ai/ha): 0; Plant response rating (0 to 100), Foxtail, Green ([10]; 62 g ai/ha): 0; Plant response rating (0 to 100), Foxtail, Green ([10]; 125 g ai/ha): 0; Plant response rating, Foxtail, Green ([10]; 250 g ai/ha): 0 |
| Clc1cc(Cl)cc(-c2n[nH]cc2C(=NNc2ccccc2Cl)c2ccccc2)c1 [Compound 66] | 0 | 0 | 0 | 0 | 0 | 0 | 0 | 0 | 0 | 0 | 0 | 0 | 0 | 0 | 0 | 0 | 0 | 0 | 0 | 0 | Plant response rating, Barley ([1]; 500 g ai/ha): 0; Plant response rating, Deadnettle ([2]; 500 g ai/ha): 5; Plant response rating, Surinam Grass ([3]; 500 g ai/ha): 0; Plant response rating, Cupgrass, Woolly ([4]; 500 g ai/ha): 0; Plant response rating, Canarygrass ([5]; 500 g ai/ha): 0; Plant response rating, Windgrass ([6]; 500 g ai/ha): 0; Plant response rating, Bermudagrass ([7]; 250 g ai/ha): 0; Plant response rating, Bermudagrass ([7]; 500 g ai/ha): 0; Plant response rating (0 to 100), Cocklebur ([8]; 62 g ai/ha): 40; Plant response rating (0 to 100), Cocklebur ([8]; 125 g ai/ha): 90; Plant response rating, Cocklebur ([8]; 500 g ai/ha): 90; Plant response rating (0 to 100), Bromegrass, Downy ([9]; 62 g ai/ha): 0; Plant response rating (0 to 100), Bromegrass, Downy ([9]; 125 g ai/ha): 0; Plant response rating, Bromegrass, Downy ([9]; 250 g ai/ha): 0; Plant response rating, Bromegrass, Downy ([9]; 500 g ai/ha): 0; Plant response rating (0 to 100), Foxtail, Green ([10]; 62 g ai/ha): 0; Plant response rating (0 to 100), Foxtail, Green ([10]; 125 g ai/ha): 0; Plant response rating, Foxtail, Green ([10]; 250 g ai/ha): 0; Plant response rating, Foxtail, Green ([10]; 500 g ai/ha): 0 |
